Experimental data taken from publication PMC10376691, “Inhibition of Acetylcholinesterase and Amyloid-β Aggregation by Piceatannol and Analogs: Assessing In Vitro and In Vivo Impact on a Murine Model of Scopolamine-Induced Memory Impairment” (Antioxidants, 2023).
Entries after “also recorded” stand apart in the source; their conditions may differ. Where two headings read alike, the source gives them in different places.

Tests used:
recombinant human AChE = target: T1, recombinant human AChE (Homo sapiens, UniProt P22303); experiment: AChE inhibitory activity in vitro (acetylthiocholine/DTNB); format: biochemical
T1 construct: purchased R&D Systems Inc. (Minneapolis, MN, USA)
T1 sequence (P22303 32-614): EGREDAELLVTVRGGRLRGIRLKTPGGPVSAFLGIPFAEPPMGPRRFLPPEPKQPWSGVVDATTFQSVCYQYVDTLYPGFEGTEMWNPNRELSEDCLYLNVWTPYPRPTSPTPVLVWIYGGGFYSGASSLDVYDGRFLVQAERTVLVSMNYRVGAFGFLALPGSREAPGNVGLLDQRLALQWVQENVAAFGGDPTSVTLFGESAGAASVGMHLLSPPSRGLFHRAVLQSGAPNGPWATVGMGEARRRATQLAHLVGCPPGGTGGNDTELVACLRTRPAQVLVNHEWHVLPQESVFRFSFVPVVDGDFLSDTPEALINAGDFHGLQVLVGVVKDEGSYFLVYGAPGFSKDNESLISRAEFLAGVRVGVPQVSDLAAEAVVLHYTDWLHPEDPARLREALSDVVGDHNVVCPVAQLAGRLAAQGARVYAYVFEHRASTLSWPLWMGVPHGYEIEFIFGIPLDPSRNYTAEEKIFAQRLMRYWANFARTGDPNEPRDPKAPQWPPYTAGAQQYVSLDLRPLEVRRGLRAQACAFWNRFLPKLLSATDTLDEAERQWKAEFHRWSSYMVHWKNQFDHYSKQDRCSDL
Description: Commercially synthesized acetylthiocholine iodide was hydrolyzed using AChE to release thiocholine, which was coupled with DTNB to generate the yellowish 5-thio-2-nitrobenzoate for in vitro AChE activity assays. For the AChE inhibitory activity assay, each analog was dissolved in the DMSO, and final concentrations of 100, 200, and 500 μM were used for comparisons. An equal volume of DMSO instead of the sample solution was used in the blank group and expressed as 100% AChE activity. […] AChE inhibition (%) was calculated as follows: [(A405blank − A405sample)/(A405blank)] × 100%.

SH-SY5Y cells = experiment: Neuroprotection against Aβ peptide (25–35)-induced cell deaths (MTT); format: cell-based, human; conditions: pre-treatment 1, 2 and 10 μM for 24 h, then 40 μg/mL Aβ (25–35) 24 h; vs control p < 0.05
Description: The human SH-SY5Y neuroblastoma cell lines (CRL-2266, Lot No. 58979771) were purchased from American Type Culture Collection (Manassas, VA, USA) and used as models to investigate PIC and its analogs for neuroprotective activities against Aβ-induced cell deaths and the stimulation of neurite outgrowths. The SH-SY5Y cells were grown in DMEM/F-12 medium supplemented with 10% FBS at 37 °C under a humidified atmosphere and 5% CO2 [41]. […]. The SH-SY5Y cells (10,000 cells/well) were seeded and cultured in a DMEM/F-12 medium containing 10% FBS for 24 h at 37 °C under a humidified atmosphere and 5% CO2. […] The medium was then removed, and 40 μg/mL Aβ peptide (25–35) (dissolved in PBS) or an equal aliquot of PBS was added to the medium for another 24 h culture. The MTT was used to evaluate cell viability, and the absorbance at 570 nm was determined. The DMSO used instead of the sample solution was blank (recognized as 100%), and each treatment was expressed as relative cell viability (%). To study the stimulation of neurite outgrowth, the SH-SY5Y cells (5000 cells/well) were seeded on a 96-well plate pre-coated with poly-L-lysine and then cultured in the DMEM/F-12 medium containing 10% FBS overnight at 37 °C under a humidified atmosphere and 5% CO2. After being removed from the culture medium, each PIC, GNT, RHA, and isoRHA (at a final concentration of 10 μM in the 0.1%DMSO) or 0.1% DMSO (the control) was added to the DMEM/F-12 medium containing 10% FBS and refreshed every three days. On day 3 and day 6, each of the culture plates was photographed using an inverted microscope (ECLIPSE TS100, Nikon Instruments Inc., Tokyo, Japan). The culture medium was removed and washed with PBS, and the cultured cells in each well were fixed with 4% paraformaldehyde. To measure cell viability and quantify the neurite outgrowths of the treated SH-SY5Y in a 96-well plate, the neurite outgrowth staining kit (a two-color fluorescence assay kit) was used, following a previous report or the protocol in the manufacturer’s manual (publication number: MAN0007224), which included a cell membrane-stained fluorescent dye (orange-red fluorescence), a cell viability indicator (green fluorescence), and a reagent for background masking. The fluorescence ratios of Ex555nm/Em565nm and Ex495nm/Em515nm were determined for the neurite outgrowths and the cell viabilities, respectively. The value for the control was recognized as 100%, and each treatment was expressed relative to the control.

[1] = tested on: scopolamine-induced amnesiac ICR mice; experiment: Passive avoidance test in scopolamine-induced amnesiac ICR mice; format: in vivo, mouse; conditions: PIC 50 mg/kg oral once a day, donepezil 5 mg/kg oral, scopolamine 1 mg/kg i.p.
Text: The scopolamine-induced cognitive dysfunctions of amnesiac ICR mice were used to evaluate the effects of PIC pre-treatments on the improvement of learning and memory functions, following previous reports. The animal experimental protocols were reviewed and approved by the Institutional Animal Care and Use Committee, Taipei Medical University (No. LAC-2021-0488). After a two-week acclimation, the mice were randomly divided into four groups (N = 5 for each group). In the first stage, the mice in the PIC group were orally pre-treated with PIC (50 mg/kg) using a feeding tube, once a day from day 1 to day 7; the mice in the blank, control, and donepezil groups were treated with the same volume of distilled water from day 1 to day 7. In the second stage, on day 8 and day 9, the mice in the PIC group and the donepezil group were orally treated once with PIC (50 mg/kg) and donepezil (positive control, 5 mg/kg), respectively, using a feeding tube; the mice in the blank and the control groups were treated with the same volume of distilled water. After 30 min, each mouse was injected intraperitoneally with scopolamine (1 mg/kg, dissolved in PBS), and the mice in the blank group were each injected with an equal volume of PBS instead of the scopolamine solution. Again, 30 min after the scopolamine or PBS injection, a learning and memory evaluation was performed on each mouse with the use of a 2-day passive avoidance test. All the mice were sacrificed at the end of the animal experiments, and the brain tissues of the mice in each group were isolated, weighted, and stored at −80 °C for further use.
A 2-day passive avoidance test, which included an acquisition trial on the first day and a retention trial on the second day, was used to evaluate the learning and memory functions of the scopolamine-induced cognitive dysfunctions of amnesiac ICR mice after PIC and donepezil treatments, following previous reports. A shuttle chamber (AccuScan Instruments Inc., Columbus, OH, USA) with a light box and a dark box separated by a sliding door was used. On day 8, after acclimation around the shuttle chamber for 30 min, each scopolamine-injected or PBS-injected mouse was placed in the light box for the acquisition trial. Once the mouse entered the dark box, the step-through latency (s) was recorded, and the sliding door was closed at the same time. Immediately after, the mouse was administered an electric foot shock (0.3 mA for 3 s) via the wired metal floor and then sent back to the cage. […] The step-through latency (period of time that each mouse stayed in the light box) was recorded again. […] The protein content of the whole brain extracts from the mice was quantified using the BCA protein kit, with bovine serum albumin as the standard protein. […]

[2] = tested on: mouse brain microvascular endothelial cell models; conditions: lipopolysaccharide-induced inflammation and oxidative stress; cited from earlier work
[3] = rats, cited from earlier work
[4] = co-administration of PIC and RSV, each at 180 μmol/kg

Oc1cc(O)cc(C=Cc2ccc(O)c(O)c2)c1 [PIC, 3,5,3′,4′-tetrahydroxystilbene]
IC50 (recombinant human AChE): 282 µM
AChE inhibitory capacity, fold higher than that of RSV (recombinant human AChE; vs RSV): 1.23 fold
neuroprotection: cell viability against Aβ peptide (25–35)-induced cell deaths (SH-SY5Y cells): elevated cell viabilities
step-through latency, acquisition trial (first day) [1]: no significant difference among the groups
step-through latency, retention trial (second day) ([1]; vs control p < 0.05): improved learning behavior; also recorded: longer staying time
BBB integrity [2]: protect BBB integrity
AUC0–8h of intact PIC/AUC0–8h of total PIC metabolites ([3]; PIC 90 μmol/kg): 18.6%
AUC0–8h of intact PIC/AUC0–8h of total PIC metabolites ([3]; PIC 180 μmol/kg): 23.9%
AUC0–8h of intact PIC/AUC0–8h of total PIC metabolites ([3]; PIC 360 μmol/kg): 25.1%
AUC0–8h in plasma, intact compound [3, 4]: 8.6 µmol·h/L
AUC0–8h of intact PIC/AUC0–8h of total PIC metabolites [3, 4]: 16.3%
AUC0–8h in plasma, intact compound ([3]; intragastric, 90 μmol/kg): 4.3 µmol·h/L
AUC0–8h in plasma, intact compound ([3]; intragastric, 180 μmol/kg): 12.3 µmol·h/L
AUC0–8h in plasma, intact compound ([3]; intragastric, 360 μmol/kg): 20.6 µmol·h/L
